# Measured values published in ChEMBL document CHEMBL5226282, “TLR2 Agonistic Small Molecules: Detailed Structure-Activity Relationship, Applications, and Future Prospects” (J Med Chem, 2021).
# Assays:
# Toll-like receptor 2 = Toll-like receptor 2 (Homo sapiens, UniProt O60603); experiment: Agonist activity at human TLR2 transfected in HEK293 cells; format: cell-based
# [1] = target: Toll-like receptor 2 (Mus musculus) (UniProt Q9QUN7); experiment: Agonist activity at mouse TLR2 transfected in HEK293 cells relative to control; format: cell-based; design: concentration or dose not given beside the values
# Sequence of Toll-like receptor 2 (Mus musculus) (Q9QUN7 whole entry): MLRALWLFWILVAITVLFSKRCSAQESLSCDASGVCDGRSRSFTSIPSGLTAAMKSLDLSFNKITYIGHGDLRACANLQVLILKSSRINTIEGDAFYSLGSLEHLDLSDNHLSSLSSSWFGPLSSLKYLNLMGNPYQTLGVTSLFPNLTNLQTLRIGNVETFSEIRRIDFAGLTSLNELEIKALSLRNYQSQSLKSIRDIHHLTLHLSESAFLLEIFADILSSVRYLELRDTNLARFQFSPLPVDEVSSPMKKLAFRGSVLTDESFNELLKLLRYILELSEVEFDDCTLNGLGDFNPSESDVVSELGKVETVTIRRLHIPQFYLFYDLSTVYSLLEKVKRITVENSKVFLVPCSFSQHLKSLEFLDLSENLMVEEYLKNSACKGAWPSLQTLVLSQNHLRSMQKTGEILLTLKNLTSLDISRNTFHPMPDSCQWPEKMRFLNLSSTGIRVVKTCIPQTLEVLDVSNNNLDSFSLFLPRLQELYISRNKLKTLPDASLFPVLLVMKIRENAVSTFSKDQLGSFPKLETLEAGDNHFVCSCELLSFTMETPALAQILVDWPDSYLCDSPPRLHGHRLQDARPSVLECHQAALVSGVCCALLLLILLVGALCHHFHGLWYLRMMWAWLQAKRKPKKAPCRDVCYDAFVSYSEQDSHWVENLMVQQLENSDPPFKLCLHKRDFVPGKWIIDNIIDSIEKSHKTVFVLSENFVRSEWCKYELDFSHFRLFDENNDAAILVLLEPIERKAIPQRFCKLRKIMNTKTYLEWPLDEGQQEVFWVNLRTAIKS
# Toll-like receptor 1/2 = Toll-like receptor 1/2 (Homo sapiens, UniProt O60603+Q15399); experiment: Agonist activity at TLR2/TLR1 in human THP-1 cells; format: cell-based
# Sequence of Toll-like receptor 1/2 (O60603 whole entry): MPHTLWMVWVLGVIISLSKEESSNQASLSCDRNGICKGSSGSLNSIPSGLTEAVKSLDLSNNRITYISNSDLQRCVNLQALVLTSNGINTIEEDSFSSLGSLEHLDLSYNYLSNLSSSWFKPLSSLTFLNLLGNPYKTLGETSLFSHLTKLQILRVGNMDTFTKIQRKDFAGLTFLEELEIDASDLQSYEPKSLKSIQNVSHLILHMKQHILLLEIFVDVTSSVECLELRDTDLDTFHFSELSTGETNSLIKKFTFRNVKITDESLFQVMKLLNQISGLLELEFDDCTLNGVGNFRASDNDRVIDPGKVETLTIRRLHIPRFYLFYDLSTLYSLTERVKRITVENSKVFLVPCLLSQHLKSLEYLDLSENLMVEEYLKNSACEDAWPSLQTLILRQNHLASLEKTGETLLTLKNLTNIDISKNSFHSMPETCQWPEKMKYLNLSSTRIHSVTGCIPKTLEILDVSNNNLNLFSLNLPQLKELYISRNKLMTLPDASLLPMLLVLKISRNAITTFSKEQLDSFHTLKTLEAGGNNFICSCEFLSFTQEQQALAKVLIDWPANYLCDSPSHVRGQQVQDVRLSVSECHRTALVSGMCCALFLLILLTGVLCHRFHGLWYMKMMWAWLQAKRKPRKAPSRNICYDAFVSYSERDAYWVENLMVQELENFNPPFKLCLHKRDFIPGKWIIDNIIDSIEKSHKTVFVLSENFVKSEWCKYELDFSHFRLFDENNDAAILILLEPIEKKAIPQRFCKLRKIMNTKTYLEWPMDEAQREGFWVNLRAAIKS
# Sequence of Toll-like receptor 1/2 (Q15399 whole entry): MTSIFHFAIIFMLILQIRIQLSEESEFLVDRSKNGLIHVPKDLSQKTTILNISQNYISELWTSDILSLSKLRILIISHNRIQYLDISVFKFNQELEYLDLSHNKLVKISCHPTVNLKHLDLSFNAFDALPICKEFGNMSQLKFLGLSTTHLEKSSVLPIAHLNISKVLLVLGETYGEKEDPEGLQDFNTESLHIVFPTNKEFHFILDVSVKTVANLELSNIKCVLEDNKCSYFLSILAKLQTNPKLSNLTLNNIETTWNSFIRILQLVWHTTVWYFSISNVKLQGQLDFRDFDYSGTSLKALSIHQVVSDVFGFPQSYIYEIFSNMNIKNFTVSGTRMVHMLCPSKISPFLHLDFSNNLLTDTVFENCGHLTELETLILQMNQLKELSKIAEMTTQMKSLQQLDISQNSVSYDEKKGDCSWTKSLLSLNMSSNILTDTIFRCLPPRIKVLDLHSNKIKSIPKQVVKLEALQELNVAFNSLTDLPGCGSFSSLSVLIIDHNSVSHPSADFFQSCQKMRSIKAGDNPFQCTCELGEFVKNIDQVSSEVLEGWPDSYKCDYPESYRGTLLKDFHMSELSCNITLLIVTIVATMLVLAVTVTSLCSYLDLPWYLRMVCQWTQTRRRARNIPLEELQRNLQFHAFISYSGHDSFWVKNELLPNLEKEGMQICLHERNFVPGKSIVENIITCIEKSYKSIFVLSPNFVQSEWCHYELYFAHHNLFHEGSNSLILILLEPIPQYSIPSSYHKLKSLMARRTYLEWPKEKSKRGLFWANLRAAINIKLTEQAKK
# [2] = target: Toll-like receptor 1/2 (Mus musculus); experiment: Agonist activity at TLR2/TLR1 in mouse Macrophage cell line
# Sequence of Toll-like receptor 2 (O60603 whole entry): as the sequence (O60603 whole entry) above
Compound,EC50 (Toll-like receptor 2),EC50 (Toll-like receptor 1/2),EC50 [2],other results
CCCCCCCCCCCCCC(=O)N[C@H](CSCC(COC(=O)CCCCCCC)OC(=O)CCCCCCC)C(=O)N[C@@H](CO)C(=O)N[C@@H](CCCCN)C(=O)N[C@@H](CCCCN)C(=O)N[C@@H](CCCCN)C(=O)N[C@@H](CCCCN)C(=O)O (stereo partly specified),,,,Activity ([1]; filed as agonist): 51%
CCC(=O)OCC(CSC[C@@H](NC(=O)Cc1ccccc1)C(=O)N[C@@H](CO)C(=O)N[C@@H](CCCCN)C(=O)N[C@@H](CCCCN)C(=O)N[C@@H](CCCCN)C(=O)N[C@@H](CCCCN)C(=O)O)OC(=O)CC (stereo partly specified),,,,Activity [1]: 0%
CCCCCCCCCCCC(=O)OC[C@H](CSC[C@@H](N)C(=O)N[C@@H](CO)C(=O)NCCOCCOCCOCCC(=O)O)OC(=O)CCCCCCCCCCC,4.94 µM,,,
CCCCCCCCCCCC(=O)OC[C@H](CSC[C@@H](N)C(=O)NCCCOCCCCOCCCCN)OC(=O)CCCCCCCCCCC,0.81 µM,,,
CCCCCCCCCCCC(=O)OC[C@H](CSC[C@@H](N)C(=O)NC(C)CCN(CC)CC)OC(=O)CCCCCCCCCCC (stereo partly specified),0.257 µM,,,
CCCCCCCCCCCC(=O)OC[C@H](CSC[C@@H](N)C(=O)NCCCOCCOCCOCCCNC(=O)C(N)CS)OC(=O)CCCCCCCCCCC (stereo partly specified),0.247 µM,,,
O=C(N[C@H]1C[C@@H]1c1ccccc1)[C@@H]1CN(C(=O)Cc2cnc(CC(=O)N3C[C@@H](C(=O)N[C@H]4C[C@@H]4c4ccccc4)[C@H](C(=O)N[C@H]4C[C@@H]4c4ccccc4)C3)cn2)C[C@H]1C(=O)N[C@H]1C[C@@H]1c1ccccc1,,0.13 µM,> 5 µM,
O=C(N[C@H]1C[C@@H]1c1ccc(Br)cc1)[C@@H]1CN(C(=O)c2ccc(C(=O)N3C[C@@H](C(=O)N[C@H]4C[C@@H]4c4ccc(Br)cc4)[C@H](C(=O)N[C@@H]4C[C@H]4c4ccc(Br)cc4)C3)cc2)C[C@H]1C(=O)N[C@H]1C[C@@H]1c1ccc(Br)cc1,,1.6 µM,> 5 µM,
O=C(N[C@H]1C[C@@H]1c1ccccc1)[C@@H]1CN(C(=O)C#CC(=O)N2C[C@@H](C(=O)N[C@H]3C[C@@H]3c3ccccc3)[C@H](C(=O)N[C@H]3C[C@@H]3c3ccccc3)C2)C[C@H]1C(=O)N[C@H]1C[C@@H]1c1ccccc1,,> 5 µM,> 5 µM,
CCCCCCCCCCCCCCNC(=O)[C@@H]1CN(C(=O)c2ccc(C(=O)N3C[C@@H](C(=O)NCCCCCCCCCCCCCC)[C@H](C(=O)NCCCCCCCCCCCCCC)C3)cc2)C[C@H]1C(=O)NCCCCCCCCCCCCCC,,> 0.005 µM,> 0.005 µM,
O=C(N[C@H]1C[C@@H]1c1ccccc1)[C@@H]1CN(C(=O)c2ccc(C(=O)N3C[C@@H](C(=O)N[C@H]4C[C@@H]4c4ccccc4)[C@H](C(=O)N[C@H]4C[C@@H]4c4ccccc4)C3)s2)C[C@H]1C(=O)N[C@H]1C[C@@H]1c1ccccc1,,0.35 µM,> 5 µM,
CCCCNC(=O)[C@@H]1CN(C(=O)c2ccc(C(=O)N3C[C@@H](C(=O)N[C@H]4C[C@@H]4c4ccccc4)[C@H](C(=O)N[C@@H]4C[C@H]4c4ccccc4)C3)cc2)C[C@H]1C(=O)N[C@H]1C[C@@H]1c1ccccc1,,0.002 µM,0.03 µM,
O=C(NCCc1ccc(F)cc1)[C@@H]1CN(C(=O)[C@H]2CC[C@@H](C(=O)N3C[C@@H](C(=O)NCCc4ccc(F)cc4)[C@H](C(=O)NCCc4ccc(F)cc4)C3)CC2)C[C@H]1C(=O)NCCc1ccc(F)cc1,,> 5 µM,> 5 µM,
COc1cc(C(=O)N2C[C@@H](C(=O)N[C@H]3C[C@@H]3c3ccccc3)[C@H](C(=O)N[C@H]3C[C@@H]3c3ccccc3)C2)ccc1C(=O)N1C[C@@H](C(=O)N[C@H]2C[C@@H]2c2ccccc2)[C@H](C(=O)N[C@H]2C[C@@H]2c2ccccc2)C1,,0.03 µM,0.25 µM,
CCCCCCCCCCCCCCCC(=O)OCC(CSC[C@@H](N)C(=O)N[C@@H](CO)C(=O)N[C@@H](CC(N)=O)C(=O)N[C@@H](CC(C)C)C(=O)N[C@H](C(=O)N[C@H](C(=O)N[C@@H](C)C(=O)N[C@@H](CO)C(=O)N[C@@H](CCC(=O)O)C(=O)N[C@H](C(=O)N[C@@H](CC(C)C)C(=O)O)[C@@H](C)O)[C@@H](C)CC)[C@@H](C)CC)OC(=O)CCCCCCCCCCCCCCC (stereo partly specified),,,,EC50 (Toll-like receptor 2; hek293): 0.27 µM
O=C(NCCc1ccc(F)cc1)[C@@H]1CN(C(=O)c2ccc3cc(C(=O)N4C[C@@H](C(=O)NCCc5ccc(F)cc5)[C@H](C(=O)NCCc5ccc(F)cc5)C4)ccc3c2)C[C@H]1C(=O)NCCc1ccc(F)cc1,,> 5 µM,> 5 µM,
CCCCCCCCCCCC(=O)OC[C@H](CSC[C@@H](N)C(=O)NCCc1cccc(O)c1)OC(=O)CCCCCCCCCCC,> 21 µM,,,
CCCCCCCCCCCCCCCCNC(=O)[C@@H]1CN(C(=O)c2ccc(C(=O)N3C[C@@H](C(=O)N[C@H]4C[C@@H]4c4ccccc4)[C@H](C(=O)N[C@@H]4C[C@H]4c4ccccc4)C3)cc2)C[C@H]1C(=O)N[C@H]1C[C@@H]1c1ccccc1,,0.0005 µM,0.0026 µM,
CCCCCCCCCCCCNC(=O)[C@@H]1CN(C(=O)c2ccc(C(=O)N3C[C@@H](C(=O)N[C@H]4C[C@@H]4c4ccccc4)[C@H](C(=O)N[C@@H]4C[C@H]4c4ccccc4)C3)cc2)C[C@H]1C(=O)NCCCCCCCCCCCC,,0.0013 µM,0.62 µM,
O=C(NCCc1ccc(F)cc1)[C@@H]1CN(C(=O)/C=C/C(=O)N2C[C@@H](C(=O)NCCc3ccc(F)cc3)[C@H](C(=O)NCCc3ccc(F)cc3)C2)C[C@H]1C(=O)NCCc1ccc(F)cc1,,> 5 µM,> 5 µM,
O=C(N[C@H]1C[C@@H]1c1ccccc1)[C@@H]1CN(C(=O)[C@@H]2CCC[C@H](C(=O)N3C[C@@H](C(=O)N[C@H]4C[C@@H]4c4ccccc4)[C@H](C(=O)N[C@H]4C[C@@H]4c4ccccc4)C3)C2)C[C@H]1C(=O)N[C@H]1C[C@@H]1c1ccccc1,,> 5 µM,> 5 µM,
CCCCCCCCNC(=O)[C@@H]1CN(C(=O)c2ccc(C(=O)N3C[C@@H](C(=O)N[C@H]4C[C@@H]4c4ccccc4)[C@H](C(=O)N[C@@H]4C[C@H]4c4ccccc4)C3)cc2)C[C@H]1C(=O)NCCCCCCCC,,0.001 µM,1 µM,
CCCCCCNC(=O)[C@@H]1CN(C(=O)c2ccc(C(=O)N3C[C@@H](C(=O)NCCCCCC)[C@H](C(=O)N[C@@H]4C[C@H]4c4ccccc4)C3)cc2)C[C@H]1C(=O)N[C@@H]1C[C@H]1c1ccccc1,,0.0008 µM,1.1 µM,
CCCCCCNC(=O)[C@@H]1CN(C(=O)c2ccc(C(=O)N3C[C@@H](C(=O)N[C@H]4C[C@@H]4c4ccccc4)[C@H](C(=O)N[C@@H]4C[C@H]4c4ccccc4)C3)cc2)C[C@H]1C(=O)N[C@H]1C[C@@H]1c1ccccc1,,0.00025 µM,0.08 µM,

# Continued, in another order:
EC50 (Toll-like receptor 2),EC50 (Toll-like receptor 1/2),EC50 [2],Compound,other results
15.3 µM,,,CCCCCCCCCCCC(=O)OC[C@H](CSC[C@@H](N)C(=O)NCCc1ccc(OCCOCCO)cc1)OC(=O)CCCCCCCCCCC,
0.19 µM,,,CCCCCCCCCCCC(=O)OC[C@H](CSC[C@@H](N)C(=O)NC(C)CCC(C)C)OC(=O)CCCCCCCCCCC (stereo partly specified),
0.038 µM,,,CCCCCCCCCCCC(=O)OC[C@H](CSC[C@@H](N)C(=O)NCCOCCOCCOCCOCCP(=O)(O)O)OC(=O)CCCCCCCCCCC,
4.4 µM,,,CCCCCCCCCCCC(=O)OC[C@H](CSC[C@@H](N)C(=O)NCCCCCCCCCC(=O)O)OC(=O)CCCCCCCCCCC,
0.068 µM,,,CCCCCCCCCCCC(=O)OC[C@H](CSC[C@@H](N)C(=O)NC(Cc1ccccc1)c1ccccc1)OC(=O)CCCCCCCCCCC (stereo partly specified),
1.04 µM,,,CCCCCCCCCCCC(=O)OC[C@H](CSC[C@@H](N)C(=O)NCCCCN)OC(=O)CCCCCCCCCCC,
0.061 µM,,,CCCCCCCCCCCC(=O)OC[C@H](CSC[C@@H](N)C(=O)NCCOCCOS(=O)(=O)O)OC(=O)CCCCCCCCCCC,
0.41 µM,,,CCCCCCCCCCCC(=O)OC[C@H](CSC[C@@H](N)C(=O)NCCCn1ccnc1)OC(=O)CCCCCCCCCCC,
15.5 µM,,,CCCCCCCCCCCC(=O)OC[C@H](CSC[C@@H](N)C(=O)NC(C)(C)CO)OC(=O)CCCCCCCCCCC,
1.22 µM,,,CCCCCCCCCCCC(=O)OC[C@H](CSC[C@@H](N)C(=O)NCCCCCN)OC(=O)CCCCCCCCCCC,
0.031 µM,,,CCCCCCCCCCCC(=O)OC[C@H](CSC[C@@H](N)C(=O)NCCOCCOCCC(F)(F)P(=O)(O)O)OC(=O)CCCCCCCCCCC,
0.41 µM,,,CCCCCCCCCCCC(=O)OC[C@H](CSC[C@@H](N)C(=O)NCCc1ccc(OCCCP(=O)(O)O)cc1)OC(=O)CCCCCCCCCCC,
30.7 µM,,,CCCCCCCCCCCC(=O)OC[C@H](CSC[C@@H](N)C(=O)NCCCC(C)(C)CO)OC(=O)CCCCCCCCCCC,
0.119 µM,,,CCCCCCCCCCCC(=O)OC[C@H](CSC[C@@H](N)C(=O)NCCOCCP(=O)(O)O)OC(=O)CCCCCCCCCCC,
1.22 µM,,,CCCCCCCCCCCC(=O)OC[C@H](CSC[C@@H](N)C(=O)NCCCCCCN)OC(=O)CCCCCCCCCCC,
0.9 µM,,,CCCCCCCCCCCC(=O)OC[C@H](CSC[C@@H](N)C(=O)NCCOCCOCCOCCC(=O)O)OC(=O)CCCCCCCCCCC,
0.27 µM,,,CCCCCCCCCCCC(=O)OC[C@H](CSC[C@@H](N)C(=O)NCCOCCOCCOCCP(=O)(O)O)OC(=O)CCCCCCCCCCC,
4.08 µM,,,CCCCCCCCCCCC(=O)OC[C@H](CSC[C@@H](N)C(=O)NCCc1ccc(Oc2ccccc2)cc1)OC(=O)CCCCCCCCCCC,
0.0192 µM,,,CCCCCCCCCCCC(=O)OC[C@H](CSC[C@@H](N)C(=O)N[C@H](C)COCCCP(=O)(O)O)OC(=O)CCCCCCCCCCC,
6.5 µM,,,CCCCCCCCCCCC(=O)OC[C@H](CSC[C@@H](N)C(=O)N[C@@H](CC)COCC(=O)O)OC(=O)CCCCCCCCCCC,
0.0718 µM,,,CCCCCCCCCCCC(=O)OC[C@H](CSC[C@@H](N)C(=O)NC(CC)COC)OC(=O)CCCCCCCCCCC (stereo partly specified),
0.498 µM,,,CCCCCCCCCCCC(=O)OC[C@H](CSC[C@@H](N)C(=O)NCCCOCCOCCOCCCN)OC(=O)CCCCCCCCCCC,
5.56 µM,,,CCCCCCCCCCCC(=O)OC[C@H](CSC[C@@H](N)C(=O)NCCCS(=O)(=O)O)OC(=O)CCCCCCCCCCC,
1.29 µM,,,CCCCCCCCCCCC(=O)OC[C@H](CSC[C@@H](N)C(=O)NCCOCCOCCN)OC(=O)CCCCCCCCCCC,
8.17 µM,,,CCCCCCCCCCCC(=O)OC[C@H](CSC[C@@H](N)C(=O)NCCc1ccc(OCCC(C)C)cc1)OC(=O)CCCCCCCCCCC,
0.014 µM,,,CCCCCCCCCCCC(=O)OC[C@H](CSC[C@@H](N)C(=O)NCCOCCC(F)(F)P(=O)(O)O)OC(=O)CCCCCCCCCCC,
